Test results from patent publication US5409946A, “Isoxazole, isothiazole and pyrazole compounds that enhance cognitive function” (Abbott Laboratories, priority 1993, dated 1995).
“Also recorded” adds a separate entry of the source.

Experiments:
[1] = system: neuronal nicotinic cholinergic channels in PC12 cells; assay: Cholinergic channel activator action in PC12 cells, whole-cell patch-clamp; type: cell-based, rat; conditions: PC12 cells; mean ± S.E.M.
Description: Electrophysiologic recordings were obtained from differentiated (neurite-bearing) cells after 4-7 days exposure to NGF. […] After 20 minutes, differentiating medium was added (DMEM containing 100 ng/ml nerve growth factor, 5% heat-inactivated fetal calf serum and 2.5% heat-inactivated horse serum) and the cells were refed with this medium every 3 days.
The intracellular (recording pipette) solution consisted of 140 mM KCl, 1.0 mM CaCl2, 2.0 mM MgCl2, 11 mM K-EGTA, and 10 mM K-HEPES buffer (7.3 pH, 315 mOsm). Osmolarities were adjusted using dextrose such that the extracellular solution was 10 mOsm hypertonic compared to the intracellular solution. Voltage-gated inward (sodium) and outward (potassium) currents were monitored throughout the experiment to determine establishment and maintenance of the whole-cell recording configuration.

[2] = system: basal forebrain neurotransmission / cortical cerebral blood flow; assay: Cerebral blood flow (laser-doppler flowmetry) and mean arterial pressure with basal forebrain stimulation; type: in vivo, male Sprague-Dawley rats
Description: Methods for surgical preparation of rats for electrical stimulation of brain and measurement of CBF have been previously described (Nakai et al., Am. J. Physiol., 1982, 243: 226) and are summarized below.
Studies are conducted on male Sprague-Dawley rats that are maintained in a thermally-controlled (26°-27° C.), light-cycled (7.00 hour on-19.00 hour off) environment, fed standard rat chow and given water ad libitum. Anesthesia is induced with halothane (3.5%; balance O2) delivered through a nose mask and maintained at 2% during the initial surgery. Thin-wall vinyl catheters (o.d.=0.03 inch) are placed in each femoral artery and vein, and the trachea is cannulated.
Animals are subsequently co-anesthetized with urethane (1.5 g/kg, s.c.) and placed in a stereotaxic frame with the head positioned so that the floor of the IVth ventricle was horizontal (incisor bar position: -11 mm. ). After connecting the tracheal cannula to a small-animal respirator, the animals are temporarily paralyzed with d-tubocurarine (0.6 mg/kg/h, i.m.), and ventilated (80 cpm) with 100% O2. Arterial pressure (AP) and heart rate (HR) are continuously monitored through one of the arterial catheters connected to a Statham P23Db transducer that is coupled to a chart recorder. The level of anesthesia during surgery or subsequent experimental testing is assessed by the AP response to tail pinch, with increasing levels of arousal giving rise to irregular AP readings. Booster doses of urethane (250 mg/kg, s.c.) are given as needed.
Bilateral craniotomies (approximately 4 mm×11 mm) are performed overlying the frontoparietal cortices taking care to leave the dura intact. Halothane is delivered at a reduced rate of 1% during cranial surgery and discontinued afterward. A small volume (about 0.2 ml) of arterial blood is sampled after completion of all surgery for measurement of PO2, PCO2 and pH by a blood gas analyzer. Arterial blood gases are maintained so that PO2 was greater than 100 mm Hg, PCO2 =33-38 mmHg, and pH=7.35-7.45. Maintaining these values is accomplished by adjusting the stroke volume of the ventilator. Once appropriate physiological parameters are obtained (approximately 30 min), the experimental protocol is initiated.
The basal forebrain (BF) is stimulated with cathodal current delivered through a stainless steel concentric bipolar electrode ([…]) made by Rhodes Medical Instruments (Model SNEX-100). Electrical pulses are generated by a square wave stimulator (Grass, Model S-88) and constant current is passed through a photoelectric stimulus-isolation unit (Grass, Model PSIU6). The stimulus current is measured on an oscilloscope by continuously displaying the voltage drop across a 10-ohm resistor.
The procedure for eliciting an increased cortical CBF response requires the stereotaxic placement of the stimulating electrode into the BF. For positioning, the electrode is inclined posteriorly to 18 degrees, and the stereotaxic coordinates used were 5.0 mm posterior to, and 2.6 mm lateral to bregma (stereotaxic zero reference point). […] These parameters have been shown previously to elicit maximal increases in cortical CBF (Arneric, Excerpta Medica International Congress Series, 869:381, 1989). The region of the BF that selectively affects cortical CBF is restricted, with electrode movements of 0.5 mm dorsal or ventral to this site eliciting potent vasodepressor responses in addition to the increases in CBF. […] When CBF increases of approximately 100% or greater are repeatedly obtained in the absence of significant changes in AP (<10 mm Hg) or HR (<10 beats/min.), and when the perfusion rate is stable in the absence of BF stimulation, the experimental testing is started.
The principles and technical aspects of laser-doppler flowmetry (LDF) are presented in detail in Bonner et al., Appl. Opt., 1981, 20:2097 and Stern et al., Am. J. Physiol., 1977, 232:H441. […]

[3] = system: spike wave discharges; assay: Attenuation of petit mal absence-like spike wave discharges (EEG); type: in vivo, male Wistar rats; conditions: for Total spike wave duration: p < 0.05
Description: Animals: Male albino rats of the Wistar strain (CAMM Research) were maintained on a 12:12 hour light-dark cycle and individually housed throughout these experiments. They were fed standard rodent diet with food and water provided ad libitum.
EEG Recordings: To record spike wave discharges, rats were surgically implanted with permanently affixed EEG electrodes over the frontal codex using previously described techniques (Radek, Brain Res., 1993, in press). After at least a ten day recovery from this surgery, EEG recordings were made inside darkened sound attenuating chambers. Rats were allowed to move freely within the chambers and computerized activity monitors recorded animal motion during these studies. Only those rats that express spike wave discharges, as identified from preliminary recordings, were used to test the effects of nicotinic agents.
Drug studies: EEG recordings were obtained from each rat for a period of 20 minutes of total waking immobility immediately after administration of drug, or a drug-free control solution. Immobility was characterized as the absence of infrared beam interruptions from the activity monitor system. Spike wave activity was identified as regular 6-10 Hz complexes with amplitudes of 0.4 to 1.0 mV. The total spindling duration for 20 minutes of waking immobility was calculated by determining the length (in seconds) of each spike wave burst, and adding each of these times together to obtain a total spindle time for the recording session. Each rat was administered the control solution and one or two doses of the test compounds and each dosing was given at least 48 hours after the previous treatment.
The compound of Example 2 was dissolved in saline to the desired concentration.

## Cc1cc([C@@H]2CCCN2C)on1.O=C(O)C(=O)O [Example 2, 3-Methyl-5-(1-methyl-2(S)-pyrrolidinyl)-isoxazole oxalate salt]
[1]
  EC50: 209 ± 76 µM
[2]; 0.004 μmol/kg i.v.
  BF-elicited CBF % change from pre-drug control: +68%
  MAP % change from pre-drug control: +5%
  resting CBF % change from pre-drug control: +5%
[2]; 0.040 μmol/kg i.v.
  MAP % change from pre-drug control: -5%
  resting CBF % change from pre-drug control: -2%
[2]; 0.040 μmol/kg i.v., *p < 0.05
  BF-elicited CBF % change from pre-drug control: +60%
[2]; 0.400 μmol/kg i.v.
  MAP % change from pre-drug control: -13%
  resting CBF % change from pre-drug control: -6%
[2]; 0.400 μmol/kg i.v., *p < 0.05
  BF-elicited CBF % change from pre-drug control: +68%
[2]; i.v., low concentrations, n=3
  effect on resting CBF and the BF-elicited CBF response: effective in enhancing resting CBF and the BF-elicited CBF response
[2]; i.v., oxalate salt
  effects on MAP / blood pressure: No remarkable effects on MAP; also recorded: no overt effects on blood pressure
[3]; Table 8, 1.9 μmol/kg i.p.
  Total spike wave duration: 26.7 ± 9.2 s
[3]; Table 8, 6.2 μmol/kg i.p.
  Total spike wave duration: 33.1 ± 10.2 s
[3]; Table 9, 10 μmol/kg p.o.
  Total spike wave duration: 25.6 ± 7.5 s
[3]; Table 11, 6.2 μmol/kg i.p.
  Total spike wave duration: 8.2 ± 3.8 s
[3]; i.p., 20 min waking immobility, p<0.05 where significant
  effect on incidence of spike wave discharges: significantly lowered the incidence of spike wave discharges
[3]; oral, 10.0 μmol/kg, p<0.05
  effect on incidence of spike wave discharges: significantly lowered the incidence of spike wave discharges
